The source made the active and inactive calls. No cut-off for these calls is given here.
Columns and labels:
[1] = species: Homo sapiens; assay: Selectivity ratio of Ki for human MT1 receptor to Ki for human MT2 receptor
[2] = biological target: T1, Melatonin receptor type 1B (Homo sapiens, UniProt P49286); assay: Displacement of 2-[125I]-iodomelatonin from human MT2 receptor expressed in CHO cells; assay type: cell-based
T1 sequence (P49286 whole entry): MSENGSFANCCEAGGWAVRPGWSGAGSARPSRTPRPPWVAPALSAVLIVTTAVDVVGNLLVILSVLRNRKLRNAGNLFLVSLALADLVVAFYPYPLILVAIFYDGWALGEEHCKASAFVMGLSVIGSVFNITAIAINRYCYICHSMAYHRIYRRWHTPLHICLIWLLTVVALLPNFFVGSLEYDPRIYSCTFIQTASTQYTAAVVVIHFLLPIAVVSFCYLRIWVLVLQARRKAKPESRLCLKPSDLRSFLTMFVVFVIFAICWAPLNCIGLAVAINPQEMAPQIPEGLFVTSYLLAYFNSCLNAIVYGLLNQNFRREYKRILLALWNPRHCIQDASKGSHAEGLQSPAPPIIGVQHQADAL

[3] = biological target: T2, Melatonin receptor type 1A (Homo sapiens, UniProt P48039); assay: Displacement of 2-[125I]-iodomelatonin from human MT1 receptor expressed in CHO cells; assay type: cell-based
T2 sequence (P48039 whole entry): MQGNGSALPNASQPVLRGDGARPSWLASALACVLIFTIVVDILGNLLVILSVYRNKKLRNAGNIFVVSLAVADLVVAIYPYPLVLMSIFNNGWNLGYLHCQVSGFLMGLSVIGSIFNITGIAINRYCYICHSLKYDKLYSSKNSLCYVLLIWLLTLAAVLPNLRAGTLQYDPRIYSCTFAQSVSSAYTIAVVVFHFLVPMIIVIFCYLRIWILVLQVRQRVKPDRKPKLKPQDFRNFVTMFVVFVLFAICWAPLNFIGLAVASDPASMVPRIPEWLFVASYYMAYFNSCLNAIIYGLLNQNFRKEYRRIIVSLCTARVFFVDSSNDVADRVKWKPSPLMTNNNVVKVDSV

[4] = biological target: T2, Melatonin receptor type 1A; assay: Antagonist activity at human MT1 receptor expressed in CHO cells assessed as inhibition of melatonin-induced activity at 10 to 100 nM; assay type: cell-based
[5] = biological target: T2, Melatonin receptor type 1A; assay: Intrinsic activity at human MT1 receptor expressed in CHO cells; assay type: cell-based
[6] = biological target: T3, Melatonin receptor type 1B (Homo sapiens) (UniProt P49286); assay: Antagonist activity at human MT2 receptor expressed in CHO cells assessed as inhibition of melatonin-induced activity at 10 to 100 nM; assay type: cell-based
T3 sequence (whole entry): T1 sequence (P49286 whole entry)

[7] = biological target: T3, Melatonin receptor type 1B (Homo sapiens); assay: Intrinsic activity at human MT2 receptor expressed in CHO cells; assay type: cell-based

SMILES | Ratio Ki [1] | Ki [2] [nM] | Ki [3] [nM] | inhibition [4] | Activity [5] | inhibition [6] | Activity [7]
COc1ccc2[nH]c(CN3CCc4ccccc43)c(CCNC(C)=O)c2c1 | 95 |  |  |  |  |  | 
CCC(=O)NCCc1c(CN2Cc3ccccc3C2)[nH]c2ccc(OC)cc12 |  | 3.72 | 5.62 |  |  |  | 
COc1ccc2[nH]c(Cn3ccc4ccccc43)c(CCNC(C)=O)c2c1 |  | 5.75 | 182 |  |  |  | 
COc1ccc2[nH]c(CN3CCc4ccccc4C3)c(CCNC(C)=O)c2c1 |  | 21.4 | 251 |  |  |  | 
CCC(=O)NCCCc1cc(OC)ccc1OCc1cccc(OC)c1 | 790 | 1.7 | 1350 |  |  |  | 
COc1ccc2[nH]c(Cn3ccc4ccccc43)c(CCNC(=O)C3CCC3)c2c1 |  | 81.3 | 57.5 |  |  |  | 
COc1ccc2[nH]c(CN3Cc4ccccc4C3)c(CCNC(=O)C3CC3)c2c1 |  | 33.9 | 61.7 |  |  |  | 
COc1ccc2[nH]c(CN3Cc4ccccc4C3)c(CCNC(C)=O)c2c1 | 124 | 2.24 | 282 | Active | inactive | Active | inactive
COc1ccc2[nH]c(CN3Cc4ccccc4C3)c(CCNC(=O)C3CCC3)c2c1 |  | 200 | 112 |  |  |  | 
C=CCC(=O)NCCc1c(CN2Cc3ccccc3C2)[nH]c2ccc(OC)cc12 |  | 9.33 | 24 |  |  |  | 

Reference: ChEMBL document CHEMBL3217409 (Medchemcomm, 2011)
